Experimental data: PubChem BioAssay AID328 (DTP/NCI, 2004)
Where “and” joins values, the source holds several entries; their conditions need not be identical. Equal entries are not always repeated. Inconclusive results and toxic doses are left out. Rule for the calls: active = survival T/C of 150% or more; inactive = T/C below 125% in these data.

Tested on: BDF1 mice, P388 leukemia ip, median survival T/C
Assay: NCI In Vivo Anticancer Drug Screen. Data for tumor model P388 Leukemia (intraperitoneal) in B6D2F1 (BDF1) mice
Settings: endpoint: median survival time, higher = longer survival
Method in brief: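 Steps: implant the tumour, treat one group with compound and another with vehicle, record survival, then divide treated by control.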

[1] = dose: 12.5 mg/kg/injection, schedule: Q01DX009 (ip), vehicle: saline
[2] = dose: 25.0 mg/kg/injection, schedule: Q01DX009 (ip), vehicle: Klucel (hydroxypropylcellulose) (HPC)
[3] = dose: 25.0 mg/kg/injection, schedule: Q01DX009 (ip), vehicle: saline
[4] = dose: 50.0 mg/kg/injection, schedule: Q01DX009 (ip), vehicle: Klucel (hydroxypropylcellulose) (HPC)
[5] = dose: 50.0 mg/kg/injection, schedule: Q01DX009 (ip), vehicle: saline
[6] = dose: 100.0 mg/kg/injection, schedule: Q01DX009 (ip), vehicle: saline with Tween-80
[7] = dose: 200.0 mg/kg/injection, schedule: Q01DX009 (ip), vehicle: saline with Tween-80
[8] = dose: 50.0 mg/kg/injection, schedule: Q01DX009 (ip), vehicle: saline with Tween-80
[9] = dose: 100.0 mg/kg/injection, schedule: Q04DX003 (ip), vehicle: Klucel (hydroxypropylcellulose) (HPC)
[10] = dose: 200.0 mg/kg/injection, schedule: Q04DX003 (ip), vehicle: Klucel (hydroxypropylcellulose) (HPC)
[11] = dose: 400.0 mg/kg/injection, schedule: Q04DX003 (ip), vehicle: Klucel (hydroxypropylcellulose) (HPC)
[12] = dose: 100.0 mg/kg/injection, schedule: Q01DX009 (ip), vehicle: Klucel (hydroxypropylcellulose) (HPC)
[13] = dose: 100.0 mg/kg/injection, schedule: Q01DX009 (ip), vehicle: saline
[14] = dose: 100.0 mg/kg/injection, schedule: Q04DX003 (ip), vehicle: saline with Tween-80
[15] = dose: 200.0 mg/kg/injection, schedule: Q04DX003 (ip), vehicle: saline with Tween-80

Measured: T/C

C/C(=C\c1ccccc1)[N+](=O)[O-]
inactive: dose: 4.0 mg/kg/injection, schedule: Q01DX009 (ip), vehicle: Klucel (hydroxypropylcellulose) (HPC) 101 % of control | dose: 6.2 mg/kg/injection, schedule: Q01DX009 (ip), vehicle: saline 90 % of control | dose: 6.25 mg/kg/injection, schedule: Q01DX009 (ip), vehicle: saline 100 % of control | dose: 8.0 mg/kg/injection, schedule: Q01DX009 (ip), vehicle: Klucel (hydroxypropylcellulose) (HPC) 108 % of control | [1] 90 % of control and 105 % of control | [2] 100 % of control | [3] 90 % of control and 108 % of control and 119 % of control | dose: 25.0 mg/kg/injection, schedule: Q04DX003 (ip), vehicle: Klucel (hydroxypropylcellulose) (HPC) 113 % of control | dose: 30.0 mg/kg/injection, schedule: Q01DX009 (ip), vehicle: Klucel (hydroxypropylcellulose) (HPC) 118 % of control | dose: 44.0 mg/kg/injection, schedule: Q01DX009 (ip), vehicle: Klucel (hydroxypropylcellulose) (HPC) 109 % of control | [4] 87 % of control | [5] 115 % of control and 123 % of control | dose: 50.0 mg/kg/injection, schedule: Q04DX003 (ip), vehicle: Klucel (hydroxypropylcellulose) (HPC) 113 % of control | dose: 50.0 mg/kg/injection, schedule: Q04DX003 (ip), vehicle: saline 100 % of control | dose: 67.0 mg/kg/injection, schedule: Q01DX009 (ip), vehicle: Klucel (hydroxypropylcellulose) (HPC) 95 % of control | dose: 100.0 mg/kg/injection, schedule: Q04DX003 (ip), vehicle: saline 109 % of control | dose: 200.0 mg/kg/injection, schedule: Q04DX003 (ip), vehicle: saline 100 % of control | dose: 400.0 mg/kg/injection, schedule: Q04DX003 (ip), vehicle: saline 109 % of control

COc1ccc(C(=O)CC(C(=O)O)c2ccc(OC)c(OC)c2)cc1OC (configuration not stated)
inactive: [6] 104 % of control | [7] 104 % of control | dose: 400.0 mg/kg/injection, schedule: Q01DX009 (ip), vehicle: saline with Tween-80 100 % of control

CN1CCOP1OCC(F)(F)F (configuration not stated)
inactive: dose: 25.0 mg/kg/injection, schedule: Q01DX005 (ip), vehicle: saline 104 % of control | dose: 50.0 mg/kg/injection, schedule: Q01DX005 (ip), vehicle: saline 93 % of control | dose: 100.0 mg/kg/injection, schedule: Q01DX005 (ip), vehicle: saline 109 % of control

O=C(OCC(OC(=O)c1ccccc1)C(OC(=O)c1ccccc1)C(OC(=O)c1ccccc1)C(COC(=O)c1ccccc1)OC(=O)c1ccccc1)c1ccccc1 (configuration not stated)
inactive: dose: 6.25 mg/kg/injection, schedule: Q04DX003 (ip), vehicle: saline with Tween-80 97 % of control | dose: 12.5 mg/kg/injection, schedule: Q04DX003 (ip), vehicle: saline with Tween-80 92 % of control | dose: 25.0 mg/kg/injection, schedule: Q04DX003 (ip), vehicle: saline with Tween-80 97 % of control | dose: 50.0 mg/kg/injection, schedule: Q04DX003 (ip), vehicle: saline with Tween-80 87 % of control

CC1(C)OC2C=CC3C(OC(=O)C3(C)Cl)C2O1 (configuration not stated)
inactive: dose: 50.0 mg/kg/injection, schedule: Q04DX002 (ip), vehicle: saline with Tween-80 112 % of control and 114 % of control | dose: 100.0 mg/kg/injection, schedule: Q04DX002 (ip), vehicle: saline with Tween-80 99 % of control and 103 % of control and 104 % of control | dose: 200.0 mg/kg/injection, schedule: Q04DX002 (ip), vehicle: saline with Tween-80 103 % of control and 104 % of control | dose: 400.0 mg/kg/injection, schedule: Q04DX002 (ip), vehicle: saline with Tween-80 99 % of control and 101 % of control (2×)

CCOC(=O)c1cc(C=O)c[nH]1
inactive: [8] 93 % of control | [6] 99 % of control | [7] 101 % of control

CC(=O)C1CCC=C2C1CC1CC2C1(C)C (configuration not stated)
inactive: [9] 100 % of control | [10] 109 % of control | [11] 104 % of control

O=C([CH-]C(=O)C(F)(F)F)c1ccccc1.O=C([CH-]C(=O)C(F)(F)F)c1ccccc1.O=C([CH-]C(=O)C(F)(F)F)c1ccccc1.O=C([CH-]C(=O)C(F)(F)F)c1ccccc1.[Eu+3].c1ccncc1
inactive: [12] 113 % of control

N=C(N)Sc1cc(O)ccc1O
inactive: [5] 109 % of control | dose: 65.0 mg/kg/injection, schedule: Q01DX009 (ip), vehicle: saline 115 % of control | [13] 115 % of control

O=C(O)CNC(=O)COc1ccc(Cl)c(Cl)c1
inactive: [8] 94 % of control | [6] 92 % of control | [7] 124 % of control

COn1nnc2c(Cl)c(Cl)ccc21
inactive: [14] 95 % of control | [15] 92 % of control | dose: 400.0 mg/kg/injection, schedule: Q04DX003 (ip), vehicle: saline with Tween-80 100 % of control

OCCN1CCN(CCCN2c3ccccc3Sc3cccnc32)CC1
inactive: [1] 104 % of control | dose: 18.75 mg/kg/injection, schedule: Q04DX003 (ip), vehicle: saline 96 % of control | [3] 108 % of control and 110 % of control | dose: 37.5 mg/kg/injection, schedule: Q04DX003 (ip), vehicle: saline 107 % of control | [5] 122 % of control

CCn1cnc2c(SC)nc(N)nc21
inactive: [2] 110 % of control | [4] 105 % of control | dose: 50.0 mg/kg/injection, schedule: Q04DX003 (ip), vehicle: alcohol 100 % of control | dose: 75.0 mg/kg/injection, schedule: Q04DX003 (ip), vehicle: Klucel (hydroxypropylcellulose) (HPC) 104 % of control | [12] 100 % of control | dose: 100.0 mg/kg/injection, schedule: Q04DX003 (ip), vehicle: alcohol 100 % of control | dose: 150.0 mg/kg/injection, schedule: Q04DX003 (ip), vehicle: Klucel (hydroxypropylcellulose) (HPC) 100 % of control | dose: 200.0 mg/kg/injection, schedule: Q04DX003 (ip), vehicle: alcohol 100 % of control | dose: 300.0 mg/kg/injection, schedule: Q04DX003 (ip), vehicle: Klucel (hydroxypropylcellulose) (HPC) 109 % of control

Oc1ccccc1C=NCCN1CC1.Oc1ccccc1C=NCCN1CC1.[Cu]
inactive: dose: 6.25 mg/kg/injection, schedule: Q01DX001 (ip), vehicle: saline sonified 104 % of control | dose: 8.25 mg/kg/injection, schedule: Q01DX001 (ip), vehicle: saline 104 % of control | dose: 12.5 mg/kg/injection, schedule: Q01DX001 (ip), vehicle: saline 112 % of control | dose: 18.75 mg/kg/injection, schedule: Q01DX001 (ip), vehicle: saline 124 % of control | dose: 25.0 mg/kg/injection, schedule: Q01DX001 (ip), vehicle: saline sonified 118 % of control

COc1cc(NS(=O)(=O)c2ccccc2)ccc1C
inactive: [2] 100 % of control | [4] 100 % of control | [12] 89 % of control and 110 % of control | [9] 104 % of control | [10] 95 % of control | [11] 95 % of control

CC1=C(/C=C/C(C)=C/C=C/C(C)=C/CO)C(C)(C)CCC1
inactive: [8] 92 % of control | [6] 96 % of control | [7] 96 % of control

Nc1nc(N)c2cc(CNc3ccc(C(=O)NC(CC(=O)O)CC(=O)O)cc3)cnc2n1
inactive: [14] 101 % of control | [15] 113 % of control | dose: 300.0 mg/kg/injection, schedule: Q04DX003 (ip), vehicle: saline with Tween-80 86 % of control

NC(=O)OCCCCCl
inactive: [5] 110 % of control | [13] 107 % of control | dose: 200.0 mg/kg/injection, schedule: Q01DX009 (ip), vehicle: saline 100 % of control
